Measurements taken from PMC11001709, “Anti-toxoplasma activity and DNA-binding of copper(II) and zinc(II) coordination compounds with 5-nitroimidazole-based ligands” (Journal of Biological Inorganic Chemistry, 2023).
“And” between values parts separate entries of the source, which are not always exact repeats. Equal entries are not always repeated.

How the values were obtained:
pBR322 plasmid DNA = test: Agarose gel electrophoresis, DNA cleavage; assay type: biochemical
Experimental: Electrophoresis assays were performed in 1.5% agarose gel and 1× TBE buffer using the DNA plasmid pBR322. The plasmid (15 µM base pairs) was incubated with 10 and 50 μM concentrations of the coordination compounds for 1 h at 37 °C in presence and absence of ascorbic acid (50 μM) as reducing agent and hydrogen peroxide (500 µM) as ROS generator in a final volume of 20 μL. The DNA-cleaving compound [Cu(phen)2(H2O)](NO3)2 was used as reference. The samples were loaded into the gel with 4 μL of a loading buffer (30% glycerol, 5 mM xylene cyanol), and electrophoresis was performed in 1× TBE at 100 V for 1 h in a Bio-Rad horizontal tank. Subsequently, the gel was stained with SYBR™ Safe overnight and images were acquired with a Gel Doc EZ Imager instrument (Bio-Rad).
Distinct forms of pBR322 plasmid DNA are commonly observed by gel electrophoresis due to the conformational changes that present distinct electrophoretic mobility: (1) supercoiled DNA (Form I) that migrates faster on the gel, (2) circular nicked (Form II), obtained from a one-strand scission, has a slower migration through the gel and (3) linear form (Form III) is generated when both strands are cleaved and migrates between forms I and II [54]. The interaction of the free ligands and their copper(II) and zinc(II) coordination compounds with pBR322 was investigated in presence of H2Asc (50 μM) as reducing agent and H2O2 (500 μM) as ROS generator. Solutions of 10 and 50 µM of the coordination compounds were incubated with the DNA at 37 °C for 1 h.

[1] = Distribution coefficient LogD7.4, shake-flask 1-octanol/MOPS buffer; assay type: physicochemical; conditions: 25 °C
Experimental: Solutions between 100 and 10 µM of the free ligands (cenz and onz) and the coordination compounds 3–10 were prepared in a MOPS buffer pH 7.4 as the aqueous phase and in 1-octanol as the organic phase. The absorption at 320 nm and 310 nm was determined for the aqueous and organic phase respectively by electronic spectroscopy (UV–Vis). Through a linear regression (concentration vs. absorption) the molar extinction coefficient of each compound in both phases was determined (Table 3). The lipophilicity was calculated in the 1-octanol/water system from the shake flask method using Eq. 1 [39]:1 […] where, Co is the final concentration in the organic phase and Cw is the final concentration in the aqueous phase (MOPS buffer at 10^–2 M pH 7.4). Both phases were presaturated with 50 µM solutions of the free ligands or 500 µM of each coordination compound and their UV spectrum was recorded. Both phases were combined and kept stirring for 3 h at 25 °C and in the absence of light. Subsequently, the mixture was centrifuged at 400g and the concentration in both phases was determined by UV–Vis spectroscopy using the Beer-Lambert law. The assays were performed in triplicate.
The T gondii parasite is an apicomplex organism; it requires a host cell to live, so it is important that the drugs used against the parasite have easy access to the cell. The lipophilicity of a compound is an important physicochemical property to determine its ability to permeate the biological membrane through passive diffusion; which usually is measured from the distribution coefficient logD7.4 = log(Co/Cw), in n-octanol/water. The shake-flask method was used to determine the LogD7.4 values from the molar extinction coefficients of the coordination compounds and the ligands in the two solvents (Table 3).

ct-DNA [2] = test: Competitive displacement of Hoechst 33258 from DNA (fluorescence); assay type: binding, calf; conditions: Hoechst 33258 1.9 µM, [DNA]b = 30 µM, compound 0-50 µM, 1 h
Experimental: (§1) For the UV–Vis, fluorescence and circular dichroism assays the concentration of ct-DNA was determined on a Varian Cary 100 Scan spectrophotometer from the absorption at 260 nm and the corresponding molar absorptivity of 6600 M^−1 cm^−1 (nucleobase concentration). The stock solutions of the coordination compounds and the free ligands were prepared in cacodylate/NaCl buffer (1 mM cacodylic acid and 20 mM sodium chloride) at pH 7.25. The final samples contained a DMSO concentration of 0.2%.
Emission intensity of the dyes DNA-intercalator ethidium bromide, EB (λexc = 514 nm) and the minor-groove binder Hoechst 33,258 (λexc = 350 nm) was measured on iHR320 HORIBA JOBIN YVON spectrofluorometer. The samples contained 15 µM (in base pairs) of ct-DNA and 75 µM of EB […] in cacodylate/NaCl buffer. The respective dye was incubated for 30 min with ct-DNA to allow its binding to the biomolecule. Subsequently, increasing amounts of coordination compounds (0–50 µM) were added up to a final volume of 2 mL, and the samples were incubated for 1 h at 37 °C. The fluorescence spectra of all samples were recorded at room temperature. The affinity of the compounds for ct-DNA compared to EB was evaluated through the Stern–Volmer quenching constant Ksv, from Eq. 3:3 I0/I=1+Ksvcompound where I0 and I are the emission intensities in absence and the presence of the compound, respectively.
Competitive binding assays were carried out with Hoechst 33,258. This dye binds to B-DNA, especially those with an AT-rich sequence giving a fluorescent signal at 458 nm when excited at 350 nm. As for to the EB assays, DNA (30 µM) was incubated for 30 min with Hoechst 33,258 (1.9 µM) and increasing amounts of the coordination compounds were subsequently added. In all cases, fluorescence quenching was observed (Fig. 9). As previously, the Ksv constants were determined (Fig. 9c and Table 4). The copper(II) compounds show Ksv values in the […] range (Table 4), indicating a groove binding behavior. For the zinc(II) compounds, the Ksv values are two orders of magnitude lower indicating weaker interactions, must likely of electrostatic nature.

ct-DNA [3] = test: Circular dichroism of ct-DNA; assay type: binding, calf; conditions: [DNA]b = 50 µM, [complex]/[DNA] 0-2, 1 h 37 °C
Experimental: as §1
Circular dichroism (CD) spectra were recorded using a JASCO-815 spectropolarimeter, equipped with xenon-arc lamp of 450 W. The sample compartment was air-purged with N2 before use. For the measurements, a quartz cuvette with an optical path of 5 mm was used. A solution of 25 µM (in base pairs) of ct-DNA in cacodylate/NaCl buffer was incubated for 1 h at 37 °C with increasing amounts of coordination compounds (0–50 µM). The CD spectra were recorded at room temperature.
The interaction of small molecules with DNA can modify these CD signals depending on the type of binding. Intercalative interactions increase the intensity of the signals, as the result of an increase of the stability of the B conformation, whereas groove binding or covalent interactions tend to decrease the intensity of these signals, which are moreover displaced. The CD spectra for both ligands and their copper(II) and zinc(II) complexes were obtained at constant concentration of ct-DNA, increasing the complex concentration up to two equivalents ([complex]/[DNA] ratios of 0, 0.2, 0.4, 1, 2) with respect to the nucleobases concentration ([DNA]b = 50 µM).

[4] = tested on: RH tachyzoites of Toxoplasma gondii; test: Viability of extracellular tachyzoites, Sytox Green exclusion test; assay type: cell-based; conditions: 2.5-40 µM, 1 h, PBS
Experimental: RH tachyzoites of Toxoplasma gondii were extracted in PBS solution at pH 7.4 from intraperitoneal fluid of infected CD1 mice on the third day of infection and centrifuged for ten minutes at 260g. Purified parasites were used within 4 h after their isolation.
The viability of the parasites was determined from staining with Sytox Green® fluorescent dye exclusion test. Purified tachyzoites (1 × 10^6) were incubated for one hour at room temperature with PBS solutions of the coordination compounds or the free ligands at concentrations of 40, 20, 10, 5, and 2.5 µM (0.1% DMSO), in a volume final of 1 mL. After the incubation time, the samples were centrifuged for 10 min at 250g, the medium was removed and 20 µL of Sytox Green® was added after 15 min of incubation for differentiate dead parasites in a Neubauer chamber. The assays were performed in triplicate. The half maximal inhibitory concentration (IC50) was calculated by Boltzmann regression analysis and expressed as mean ± standard error of three replicates. Based on the results the tachyzoites were incubated under the same conditions with the coordination compounds [Cu(onz)2Cl2] and [Cu(onz)2Br2] at their respective IC50 values, Sytox Green® was then added, and they were observed by fluorescence microscopy. Sulfadiazine was used as positive control.
Viability assays were performed against tachyzoites of Toxoplasma gondii. The RH strain was used to evaluate the effect of different concentrations (namely, 2.5, 5, 10, 20 and 40 µM) of the coordination compounds and the free 5-nitroimidazole against the tachyzoites. The evaluation were performed in PBS buffer (pH 7.4) with Sytox Green® exclusion test, which allows differentiating dead from live tachyzoites, since the intact cell membrane of alive ones is not stained.

[5] = compound 10 (mM in the source), + H2Asc
[6] = compound 10 (mM in the source), + H2Asc + H2O2
[7] = compound 10 (mM in the source), + H2O2
[8] = compound 10 (mM in the source), no additive
[9] = compound 50 (mM in the source), + H2Asc
[10] = compound 50 (mM in the source), + H2Asc + H2O2
[11] = compound 50 (mM in the source), + H2O2
[12] = compound 50 (mM in the source), no additive

Row | Structure (SMILES) | %Damage (pBR322 plasmid DNA; [5]) | %Nicked (pBR322 plasmid DNA; [5]) | %Supercoiled (pBR322 plasmid DNA; [5]) | %Damage (pBR322 plasmid DNA; [6]) | %Damage (pBR322 plasmid DNA; [7]) | %Supercoiled (pBR322 plasmid DNA; [7]) | %Supercoiled (pBR322 plasmid DNA; [8]) | effect on CD spectrum of ct-DNA (bands at 275 and 245 nm) (ct-DNA [3]) | %Damage (pBR322 plasmid DNA; [9]) | %Supercoiled (pBR322 plasmid DNA; [9]) | %Damage (pBR322 plasmid DNA; [10]) | %Damage (pBR322 plasmid DNA; [11]) | %Nicked (pBR322 plasmid DNA; [11]) | %Supercoiled (pBR322 plasmid DNA; [11]) | %Damage (pBR322 plasmid DNA; [12]) | %Supercoiled (pBR322 plasmid DNA; [12]) | other results
1 | O.O=[N+]([O-])[O-].O=[N+]([O-])[O-].[Cu+2].c1cnc2c(c1)ccc1cccnc12.c1cnc2c(c1)ccc1cccnc12 [Cu(phen), reference compound] | 100.00% and 94.90% | 64.80% | 5.10% | 100.00% | 80.70% and 79.00% | 19.30% and 21.00% | 81.70% and 93.20% |  |  |  |  |  |  |  |  |  | 
2 | Cc1ncc([N+](=O)[O-])n1CCCl.Cc1ncc([N+](=O)[O-])n1CCCl.[Cl][Zn][Cl] [[Zn(cenz)2Cl2]] | 17.10% | 2.90% | 82.90% | 90.90% | 7.30% | 92.70% | 79.20% | spectra changes are minor | 80.60% | 19.40% | 100.00% | 97.60% | 81.50% | 2.40% | 18.40% | 81.60% | LogD7.4 ([1]; octanol/water (MOPS buffer 10^–2 M), 3 h): 0.86; Hoechst 33258 Ksv (ct-DNA [2]): 61000 M⁻¹; %Nicked (pBR322 plasmid DNA; [6]): 2.10%; %Supercoiled (pBR322 plasmid DNA; [6]): 9.10%; %Nicked (pBR322 plasmid DNA; [7]): 6.50%; %Damage (pBR322 plasmid DNA; [8]): 20.80%; %Nicked (pBR322 plasmid DNA; [8]): 2.50%; %Nicked (pBR322 plasmid DNA; [9]): 40.60%; %Nicked (pBR322 plasmid DNA; [12]): 2.20%
3 | Cc1ncc([N+](=O)[O-])n1CCCl [cenz, 1-(2-chloroethyl)-2-methyl-5-nitro-1H-imidazole] |  |  |  |  |  |  |  | did not affect the DNA structure | 8.80% | 91.20% | 9.70% | 7.20% | 5.90% | 92.80% | 7.50% | 92.50% | activity against T. gondii [4]: did not show activity; logD at 3 h ([1]; 1-octanol/MOPS buffer, pH 7.4, octanol/water (MOPS buffer 10^–2 M)): 0.72; %Nicked (pBR322 plasmid DNA; [10]): 4.00%; %Supercoiled (pBR322 plasmid DNA; [10]): 90.30%; DNA cleavage (in words) (pBR322 plasmid DNA; with and without H2Asc / H2O2): did not provoke any significant DNA cleavage
